Where “and” joins values, the source holds several entries; their conditions need not be identical. Identical values can stand only once. Like-named read-outs stand apart in the source and are kept apart here.
How the values were obtained:
[1] = test system: cells in peripheral blood; details: for Number of cells, peripheral blood, average: average of group; for Number of cells, peripheral blood, individual mice: single mice
Source text: The injection was an intraperitoneally injection.
The peripheral blood of the mice of the first and the second groups of mice under experimentation according to a) was used to determine the total number of all cells on day 0 and then on each of the following days until day 10 on several mice selected from each of the first and the second groups.
The number of cells in peripheral blood has been evaluated as hereafter disclosed.

[2] = test system: cells in bone marrow; details: for Number of cells, bone marrow, average: average of group; for Number of cells, bone marrow, individual mice: single mice
Description: A first group and a second group comprising each 50 mice of the Balb/c type were tested.
On day 0 and then each day after day 0, during 10 days, the total number of cells per ml in bone marrow was determined on several mice of each of both first and second groups.
The number of cells in bone marrow was evaluated as hereafter disclosed. The mice were killed by cervical dislocation, placed on their back on cutting board and soaked with ethanol. A long traverse cut through the skin in the middle of the abdominal area was followed by reflecting the skin from the hindquarters and the hind legs. The legs were separated from the body at the hip joint and the feet were removed. The legs were placed in a Petri dish obtaining RPMI 1640 medium (Sigma). All muscle tissue from the femurs and tibia was removed and the bones were separated (only femurs were used). The epiphyses were cut off on both ends, the bone end was punctured with a 23 G needle and flushed out with 3 ml of warm (22° C.) RPMI 1640 medium. The large debris and cell clumps were removed by layering the cell suspension over 3 ml of heat-inactivated fetal calf serum (FCS; Hyclone, Logan, Utah, USA) for 10 minutes on ice. The cells collected from the top of FCS were washed once by centrifugation at 300×g for 10 minutes at 4° C. and kept in RMPI 1640 medium containing 5% FCS. Five microliters of the cell suspension was mixed with 95 ul of Turk's solution (a mixture of 3 ml concentrated acetic acid, 3 ml of 1% crystal violet in water, Fernandez-Botran and Vetvicka “Methods in Cellular Immunology”, CRC Press, Boca Raton, 1995), and incubated for 5 minutes at room temperature. One drop of this solution has been dropped into a hemocytometer and the cells were counted under an optical microscope.
The result of the counting is expressed in number of cells per femur×10^6.

Compound: O=P1(N(CCCl)CCCl)NCCCO1 (stereo not drawn) [cyclophosphamide]
- Number of cells, peripheral blood, average ([1]; day 1): 3.6 per ml × 10^5
- Number of cells, peripheral blood, average ([1]; day 2): 3.6 per ml × 10^5
- Number of cells, peripheral blood, individual mice ([1]; day 2): 6.6 per ml × 10^5 and 6.0 per ml × 10^5 and 6.3 per ml × 10^5
- Number of cells, peripheral blood, average ([1]; day 3): 4.2 per ml × 10^5
- Number of cells, peripheral blood, individual mice ([1]; day 3): 3.8 per ml × 10^5 (2×) and 5.1 per ml × 10^5
- Number of cells, peripheral blood, average ([1]; day 4): 5.1 per ml × 10^5
- Number of cells, peripheral blood, average ([1]; day 5): 7.2 per ml × 10^5
- Number of cells, peripheral blood, individual mice ([1]; day 5): 4.0 per ml × 10^5 and 9.6 per ml × 10^5 and 8.1 per ml × 10^5
- Number of cells, peripheral blood, average ([1]; day 6): 6.5 per ml × 10^5
- Number of cells, peripheral blood, individual mice ([1]; day 6): 7.8 per ml × 10^5 and 5.0 per ml × 10^5 and 6.7 per ml × 10^5
- Number of cells, peripheral blood, average ([1]; day 7): 6.4 per ml × 10^5
- Number of cells, peripheral blood, individual mice ([1]; day 7): 3.8 per ml × 10^5 and 7.3 per ml × 10^5 and 8.1 per ml × 10^5
- Number of cells, peripheral blood, average ([1]; day 8): 7.2 per ml × 10^5
- Number of cells, peripheral blood, individual mice ([1]; day 8): 4.1 per ml × 10^5 and 8.2 per ml × 10^5 and 9.3 per ml × 10^5
- Number of cells, peripheral blood, average ([1]; day 9): 11.2 per ml × 10^5
- Number of cells, peripheral blood, individual mice ([1]; day 9): 8.9 per ml × 10^5 and 11.9 per ml × 10^5 and 12.9 per ml × 10^5
- Number of cells, peripheral blood, average ([1]; day 10): 29.2 per ml × 10^5
- Number of cells, peripheral blood, individual mice ([1]; day 10): 23.8 per ml × 10^5 and 27.8 per ml × 10^5 and 35.9 per ml × 10^5
- Number of cells, bone marrow, average ([2]; day 1): 1.25 per femur × 10^6
- Number of cells, bone marrow, individual mice ([2]; day 1 after i.p. injection): 1 per femur × 10^6 and 1.2 per femur × 10^6 and 1.4 per femur × 10^6 (2×)
- Number of cells, bone marrow, average ([2]; day 2): 1.25 per femur × 10^6
- Number of cells, bone marrow, individual mice ([2]; day 2): 0.8 per femur × 10^6 and 2.0 per femur × 10^6 and 2.4 per femur × 10^6
- Number of cells, bone marrow, average ([2]; day 3): 3.6 per femur × 10^6
- Number of cells, bone marrow, average ([2]; day 4): 2.7 per femur × 10^6
- Number of cells, bone marrow, average ([2]; day 5): 4.7 per femur × 10^6
- Number of cells, bone marrow, individual mice ([2]; day 5): 2.1 per femur × 10^6 and 6.0 per femur × 10^6 and 6.1 per femur × 10^6
- Number of cells, bone marrow, average ([2]; day 6): 6.4 per femur × 10^6
- Number of cells, bone marrow, individual mice ([2]; day 6): 6.5 per femur × 10^6 and 5.7 per femur × 10^6 and 7.0 per femur × 10^6
- Number of cells, bone marrow, average ([2]; day 7): 8.1 per femur × 10^6
- Number of cells, bone marrow, individual mice ([2]; day 7): 9.0 per femur × 10^6 and 8.1 per femur × 10^6 and 7.3 per femur × 10^6
- Number of cells, bone marrow, average ([2]; day 8): 6.3 per femur × 10^6
- Number of cells, bone marrow, individual mice ([2]; day 8): 6.0 per femur × 10^6 and 6.2 per femur × 10^6 and 6.8 per femur × 10^6
- Number of cells, bone marrow, average ([2]; day 9): 8.2 per femur × 10^6
- Number of cells, bone marrow, individual mice ([2]; day 9): 8.0 per femur × 10^6 and 8.5 per femur × 10^6 and 8.2 per femur × 10^6
- Number of cells, bone marrow, average ([2]; day 10): 9.4 per femur × 10^6
- Number of cells, bone marrow, individual mice ([2]; day 10): 7.2 per femur × 10^6 and 10.8 per femur × 10^6 and 10.3 per femur × 10^6

— patent US7671040B2, “Chemotherapeutic antineoplastic treatment” (Laboratoires Goemar S.A., priority 2003, dated 2010)
